This is an account of results in PMC8742467, “Therapeutical interference with the epigenetic landscape of germ cell tumors: a comparative drug study and new mechanistical insights” (Clinical Epigenetics, 2022).

Like-named read-outs stand apart in the source and are kept apart here.

In test [1] the test system is YST (yolk-sac tumor) cell lines. Put plainly: XTT cell viability assay, mean per entity YST. Format: cell-based. As to conditions: Homo sapiens, after 48 h. As for the experimental part: (§1) The […] (XTT) assays were performed as described previously. In summary, for GCT and fibroblast cell lines 5 × 10^3 cells (3 × 10^3 for UC, PCa and RCC cell lines) per 96-well were seeded and different drug concentrations (see Additional file 2: Fig. S2, Additional file 3: Fig. S3) or corresponding solvents were added to the cells the following day. For drug details see Additional file 12: Table S2 C. Each condition was analyzed in four technical replicates and EC50 values were calculated by GraphPad Prism v8.
(In general: Formazan colour is commonly taken as a measure of viable cells.)

Test [2] has as its system prostate cancer (PCa) cell lines. Kind of test: XTT cell viability assay, PCa cell lines. Type of test: cell-based, Human. The protocol:
as §1

In a further test the test system is 2102EP-R. Put plainly: Flow cytometry apoptosis (Annexin V/PI), 2102EP-R. Format: cell-based, Human. To be noted: EC50, 16 h, compared to the parental cell line. Background: Flow cytometry measures light scatter and fluorescence of single cells or particles in a stream.
The test system of a further test is GCT cell lines. Put plainly: XTT cell viability assay, GCT cell lines (pre-screen / summary). Type of test: cell-based, Human. As to conditions: for EC50 / effective concentration in words: SE and EC proxies TCam-2 and 2102EP. The method, boiled down:
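Seeding density of 5 × 10^3 cells per well applied to both tumour and fibroblast lines; compounds or vehicle followed after overnight attachment. Metabolic activity by XTT, four technical repeats, EC50 calculated.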

For test [3], the system named is renal cell carcinoma (RCC) cell lines. Put plainly: XTT cell viability assay, RCC cell lines. Format: cell-based. The protocol: as §1
Test [4] has as its system transcriptome of 2102EP cells. Kind of test: RNA sequencing. To be noted: 16 h; for A1BG Log2 fold change vs. DMSO / A1CF Log2 fold change vs. DMSO / A2M Log2 fold change vs. DMSO: unsorted data. Type of test: cell-based, Human. The procedure, abridged:
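Transcriptome of 2102EP cells sequenced; differential expression between two groups tested with p values FDR-corrected for multiple testing. Solvent-control values averaged across three datasets (GSE189472, GSE190792, GSE190022).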

Test [5] has as its system PRKCB, PRKD1, HDAC9, CSF1R expression in GCT cells. Put plainly: Quantitative RT-PCR of co-treatment target genes. Type of test: cell-based, Human. To be noted: 0.2 × EC50, 0.5 × EC50 and EC50. The protocol: Quantitative RT-PCR (qRT-PCR) was performed as described previously. A total amount of 1 µg of RNA was in-vitro transcribed into cDNA by using Oligo(dT)18 Primer and Maxima H Minus Reverse Transcriptase (200 U/µL) (all Thermo Fisher Scientific). qRT-PCR runs were performed on a 384-well C1000 cycler (BioRad, Feldkirchen, Germany). All samples were analyzed in technical triplicates using 7.34 ng of cDNA for each replicate and the SYBR-green-based Luna Universal qPCR Master Mix (New England Biolabs, Frankfurt am Main, Germany). At the end of each run, melting curve analyses were performed. Oligonucleotide sequences are given in the supplement (Additional file 12: Table S2 B).

Test [6] concerns urothelial carcinoma (UC) cell lines. Put plainly: XTT cell viability assay, UC cell lines. Type of test: cell-based, Human. The protocol: as §1
In a further test the test system is GCT cells. Kind of test: Flow cytometry cell cycle (PI), GCT cells. Type of test: cell-based, Human. To be noted: EC50, 16 h. The protocol:
(§2) For Annexin V/PI staining, cells were washed with Annexin V Binding Buffer before being resuspended in 70 µl Annexin V Binding Buffer and 2.5 μl Annexin V FITC-conjugate (both Miltenyi Biotec, Bergisch Gladbach, Germany) and 15 µg PI (Sigma-Aldrich, Taufkirchen, Germany) and incubated in the dark at room temperature for 15 min. 500 µl of Annexin V Binding Buffer was added before measurement. For the cell cycle analysis, cells were washed with PBS (phosphate buffered saline), fixed by ice cold 70% ethanol and stained with 2 µg/ml PI and 200 µg/ml RNaseA (Quiagen, Hilden, Germany 100 mg/ml) in PBS shortly before every measurement. At least 5 × 10^4 cells were counted and analyzed using the MACSQuant software v 2.13.0.

The subject of a further test is JAR (CC). Kind of test: XTT cell viability assay, JAR. Type of test: cell-based. As to conditions: Homo sapiens, after 48 h, n = 4, read-out: EC50 colour/symbol code, CC JAR. As for the experimental part: as §1
In a further test the test system is CC (JAR). Kind of test: Flow cytometry apoptosis (Annexin V/PI), CC. Format: cell-based, Human. To be noted: EC50, 16 h. The protocol: as §2
A further test concerns YST (GCT72). Put plainly: Flow cytometry apoptosis (Annexin V/PI), YST. Type of test: cell-based, Human. As to conditions: EC50, 16 h. The protocol:
as §2

Test [7] deals with CC (choriocarcinoma) cell lines JAR, JEG-3, BeWo. Put plainly: XTT cell viability assay, CC cell lines. Type of test: cell-based. As to conditions: Homo sapiens; after 48 h, mean per entity. As for the experimental part:
as §1

Test [8] has as its system H2AK119ub in 2102EP cells. Kind of test: Western blot of histone extracts. Format: cell-based, Human. As to conditions: after 48 h of treatment. As for the experimental part:
Western Blots were performed as described previously. In total, 20 µg of whole cell protein lysates or 3 µg of histone extract were used for western blotting. β-Actin was used as housekeeper and loading control for whole cell lysates. Western blots of histone extracts were stained with Coomassie Brilliant Blue R 250 (Roth, Karlsruhe, Germany) and total H3 or H4 antibody to verify equal loading. For antibody details, see supplement (Additional file 12: Table S2 D). The ChemiDoc Imaging System (Bio-Rad Laboratories, Feldkirchen, Germany) was used for detection. Pixel density was analyzed using the ‘Image Lab’ software provided by Bio-Rad.
On the technique in general: In western blotting, separated proteins are transferred to a membrane and probed.

Another test relates to fibroblast control cells. Kind of test: Flow cytometry apoptosis (Annexin V/PI), fibroblasts. Type of test: cell-based, Human. To be noted: EC50, 16 h. As for the experimental part:
as §2

Setting [9] is: Homo sapiens; mean of three cell lines, 48 h.
Setting [10] is: Homo sapiens, GCT, cell line not stated, read-out: EC50 concentration used for low dose qRT-PCR.
[11] abbreviates: sorted data log2>±1.5, FDR p<0.05.
[12] abbreviates: Homo sapiens, 48 h, mean of three cell lines.

In turn, `CN1C(=O)[C@@]23C[C@]4([C@]56C[C@@]78SS[C@@](CO)(C(=O)N7[C@H]5Nc5ccccc56)N(C)C8=O)c5ccccc5N[C@@H]4N2C(=O)[C@]1(CO)SS3` [Chaetocin] came in with an EC50 in test [1] of 0.0987 µM. In test [2] (setting [9]), this compound gave an EC50 of 0.233 µM. Besides, the “apoptosis induction in 2102EP-R” value with 2102EP-R was “did not induce apoptosis”. The EC50 in the test with GCT cell lines (setting [10]) is 0.173 µM. For the same compound, in the test on GCT cell lines (first pre-screen, XTT), the “EC50 / effective concentration in words” value is “nanomolar range”. In addition, in [3] (setting [9]), the EC50 turned out to be 0.156 µM. Besides, in test [4] (setting [11]), the “ATP1A2 Log2 fold change vs. DMSO” value is on record as -3.26, the “CASQ1 Log2 fold change vs. DMSO” value was -2.99, the “DLX5 Log2 fold change vs. DMSO” value came out at 5.91 and the “DLX6 Log2 fold change vs. DMSO” value is given as 5.90. Further, in [4] (setting [11]), the “POU2F3 Log2 fold change vs. DMSO” value was -2.99 and the “SERPINB3 Log2 fold change vs. DMSO” value was found to be 6.77. In test [4], the “A1BG Log2 fold change vs. DMSO” value is reported as 0.04, the “A1CF Log2 fold change vs. DMSO” value is reported as -2.02 and the “A2M Log2 fold change vs. DMSO” value is listed as 1.33. Besides, the “PRKD1 expression (qRT-PCR)” value in [5] is listed as “upregulation”. The compound also showed an EC50 in test [6] (setting [9]) of 0.0996 µM. Further, the “cell cycle phase accumulation in GCT cells” value with GCT cells is “accumulation in the G2/M phase”. Further, in the test with JAR (CC), the EC50 was less than 1 µM.
In test [1], `CCCc1cc(C)[nH]c(=O)c1CNC(=O)c1cc(-c2ccnc(N3CCN(C)CC3)c2)cc2c1cnn2C(C)C` [GSK343] displayed an EC50 of 6.18 µM. Besides, the “apoptosis induction in JAR” value with CC (JAR) is on record as “negligible”. The “apoptosis induction in 2102EP-R” value in the test with 2102EP-R is given as “did not induce apoptosis”. Moreover, the EC50 in the test on GCT cell lines (setting [10]) worked out at 10.7 µM. For the same compound, the EC50 in the test with GCT cell lines (Homo sapiens, GCT, first pre-screen, XTT, read-out: EC50) is not above 50 µM. The “apoptosis induction in GCT72” value in the test on YST (GCT72) is “negligible”. For the same compound, in test [4] (setting [11]), the “CSF1R Log2 fold change vs. DMSO” value stood at 3.81, the “FOSB Log2 fold change vs. DMSO” value is 3.96, the “GOLGA6D Log2 fold change vs. DMSO” value is reported as -4.42 and the “SCNN1B Log2 fold change vs. DMSO” value is recorded as -4.06. For the same compound, in test [4] (setting [11]), the “TAC1 Log2 fold change vs. DMSO” value turned out to be 3.59 and the “UMODL1 Log2 fold change vs. DMSO” value was -3.29. Moreover, in [4], the “A1BG Log2 fold change vs. DMSO” value was -0.54, the “A1CF Log2 fold change vs. DMSO” value is listed as -2.01 and the “A2M Log2 fold change vs. DMSO” value was -0.59. This compound also registered an EC50 in [7] of 10.4 µM. Besides, in [5], the “CSF1R expression (qRT-PCR)” value was “upregulation” and the “HDAC9 expression (qRT-PCR)” value is on record as “upregulation”. Further, the EC50 with JAR (CC) lay within 1 to 50 µM.
Take `O=C1C(=Cc2cccnc2)C(=O)c2ccccc21` [PRT4165]: in [8], the “H2AK119ub by western blot” value is “decreased H2AK119ub”. For the same compound, in the test with GCT cell lines (first pre-screen, XTT, read-out: EC50), the EC50 is not above 50 µM. In test [4] (setting [11]), the “BST2 Log2 fold change vs. DMSO” value is on record as -2.05, the “EIF3CL Log2 fold change vs. DMSO” value is -2.52, the “MMP1 Log2 fold change vs. DMSO” value came out at 6.18 and the “MMP10 Log2 fold change vs. DMSO” value turned out to be 6.89. Besides, in [4] (setting [11]), the “PPFIA4 Log2 fold change vs. DMSO” value was -2.26 and the “SPANXA1 Log2 fold change vs. DMSO” value amounted to 5.74. Also, in test [4], the “A1BG Log2 fold change vs. DMSO” value is recorded as -0.25, the “A1CF Log2 fold change vs. DMSO” value is recorded as 0.91 and the “A2M Log2 fold change vs. DMSO” value is reported as 1.71. For the same compound, the “apoptosis induction in fibroblast control cells” value in the test with fibroblast control cells is “only a weak apoptosis induction”.
For `Cn1cc(CNCC2CCN(c3ncc(C(=O)NO)cn3)CC2)c2ccccc21` [Quisinostat], the EC50 in test [1] was 0.00688 µM; in test [2] (setting [12]) it was 0.0222 µM; in test [2] (mean of three cell lines, 48 h), 0.0222 µM; with GCT cell lines (setting [10]), 0.00176 µM; in [3] (setting [12]), more than 0.05 µM; in [7] it was 0.00694 µM. The EC50 in test [6] (setting [12]) was 0.0172 µM; in [6] (mean of three cell lines, 48 h) it was 0.0172 µM; in the test on JAR (CC), less than 1 µM. The “EC50 / effective concentration in words” value in the test with GCT cell lines (first pre-screen, XTT) is listed as “nanomolar range”. Further, the “EIF3CL Log2 fold change vs. DMSO” value in [4] (setting [11]) was -3.69. Moreover, the “HBA1 Log2 fold change vs. DMSO” value in test [4] (setting [11]) stood at 5.01. The “IL13RA2 Log2 fold change vs. DMSO” value in [4] (setting [11]) was -2.69. Also, the “LYST Log2 fold change vs. DMSO” value in [4] (setting [11]) is recorded as -2.73. The “TSPY4 Log2 fold change vs. DMSO” value in [4] (setting [11]) is listed as 5.17. Further, in [4] (setting [11]), the “TTC9B Log2 fold change vs. DMSO” value was 4.98. Further, the “A1BG Log2 fold change vs. DMSO” value in test [4] is given as 1.07. Besides, the “A1CF Log2 fold change vs. DMSO” value in test [4] is 2.77. The “A2M Log2 fold change vs. DMSO” value in test [4] is listed as -0.10. The “PRKCB expression (qRT-PCR)” value in [5] was “upregulation”. Besides, in the test on GCT cells, the “cell cycle phase accumulation in GCT cells” value was “accumulation in the G2/M phase”.
